Patent US20210205272A1, “DOSING REGIMENS FOR TREATMENT OF SOLID TUMORS HAVING ONE OR MORE GENETIC ALTERATIONS IN FGFR1, FGFR2, AND/OR FGFR3” (DEBIOPHARM INTERNATIONAL, S.A., priority 2018, published 2021)

Experiments:
[1] = tested on: advanced solid tumors harboring FGFR 1, 2 or 3 gene alterations; test: Phase I dose escalation Debio 1347-101: tumor response by RECIST 1.1; assay type: in vivo, human
[2] = tested on: advanced solid malignancies of any histological tumor type harboring an FGFR 1, 2 or 3 fusion; test: Expansion part of Debio 1347-101 phase I study: tumor response by RECIST 1.1; assay type: in vivo, human; conditions: 80 mg once daily
Experimental: The primary objective of this expansion phase is to confirm the safety profile at the RP2D of 80 mg once daily.
As of January 2019, two patients achieved a BOR of PR by investigator assessment according to RECIST 1.1 criteria, one suffering from a cholangiocarcinoma harboring a FGFR2-TACC2 fusion and one suffering from a colon cancer harboring a FGFR2-RP11-89K10.1 fusion.

clinical = conditions: in vivo
[3] = 10 patients with confirmed FGFR fusions, doses ≥60 mg/day
[4] = confirmed FGFR fusions, doses ≥60 mg/day
[5] = one patient, intrahepatic cholangiocarcinoma, FGFR2 deletion of exon 5

Cc1nc2cc(-n3ncc(C(=O)c4cc5ccccc5[nH]4)c3N)ccc2[nH]1 [Debio 1347, 5-amino-1-(2-methyl-1H-benzo[d]imidazol-5-yl)-1H-pyrazol-4-yl 1H-indol-2-yl ketone]
patients achieving PR [1, 3]: 3 patients
patients achieving disease stabilization [1, 3]: 5 patients
patients with progressive disease ([1]; 57 evaluable patients): 35 patients
patients with stable disease ([1]; 57 evaluable patients): 16 patients
tumor type, FGFR alteration and dose of the six PRs ([1]; 57 evaluable patients): two had urothelial carcinoma (FGFR3 fusion—80, 150 mg), the others uterine (FGFR1 amplified—30 mg), cervical (FGFR2 amplified—80 mg), colon cancer (FGFR1 amplified—110 mg) or cholangiocarcinoma (FGFR2 mutation—110 mg)
patients with partial response (PR), overall ([1]; 57 patients evaluable for tumor response): 6 patients
disease control rate (DCR) overall ([1]; all evaluable patients): 38.6%
response after independent centralized radiological review ([1]; cholangiocarcinoma, FGFR2 mutation, 110 mg): confirmed completed response (CR)
disease control rate (DCR) [1, 4]: 80%
median treatment duration in patients with disease control [1, 4]: 34 weeks
range of treatment duration in patients with disease control [1, 4]: 24-47 weeks
antitumor activity ([1]; mainly FGFR2 or 3 gene alterations incl. fusion/translocation, 80 mg and 110 mg daily): Encouraging antitumor activity
stable disease patients with reduced target lesion size ≤30% at least once on-treatment ([1]; of 16 with stable disease): 10 patients
patients with progressive disease per clinical assessment in absence of radiographic evidence ([1]; of 35 with progressive disease): 13 patients
duration of partial response [1, 5]: up to 48 weeks
response upon independent radiological review [1, 5]: complete response
tumor volume reduction ([2]; cholangiocarcinoma FGFR2-ATAD2 fusion, after 6 weeks of treatment): about 7%
patients with BOR of PR by investigator assessment ([2]; cholangiocarcinoma FGFR2-TACC2 fusion and colon cancer FGFR2-RP11-89K10.1 fusion, as of January 2019): two
best response ([2]; one patient, cholangiocarcinoma FGFR2-ATAD2 fusion): disease stabilization (SD)
half-life (clinical; human, po): 690 min
hyperphosphatemia dose relation (clinical): dose-dependent
drug-related deaths (58 treated patients): no death was considered drug-related
maximum tolerated dose (MTD) (escalated up to 150 mg, ≤2 DLTs at the same dose level): not formally reached
TEAE highest severity grade 1 (human, in vivo): 4 (6.9%) patients
TEAE highest severity grade 2 (human, in vivo): 17 (29.3%) patients
TEAE highest severity grade 3 (human, in vivo): 28 (48.3%) patients
TEAE highest severity grade 4 (human, in vivo): 2 (3.4%) patients
number of serious adverse effects (SAEs) (human, in vivo): 39 SAEs
patients experiencing serious adverse effects (SAEs) (human, in vivo): 20 patients
patients requiring a dose reduction (human, in vivo): 20%
patients requiring a dose reduction after the 28-day DLT period (human, in vivo): 7 out of 9
patients requiring dose modifications due to adverse events (human, in vivo): 30 (51.7%) patients
SAEs deemed possibly study drug related (DLTs) (in vivo): two
TEAEs most often severe (grade >2) (in vivo): hyperphosphatemia, anemia, hyponatremia, and dyspnea
dose reduction required (in vivo): no dose reduction was required at all
most common TEAEs with an incidence ≥25% (in vivo): hyperphosphatemia, diarrhea, nausea, fatigue, constipation, decreased appetite, nail changes, and dry mouth
safety profile (in vivo): tolerable and manageable safety profile
TEAE highest severity grade 5 (of 58 treated patients): 7 (12.1%) patients
patients died from disease progression (of 58 treated patients): 21 patients
